Experimental data reported in patent US10752581B2, “4-((2-hydroxy-3-methoxybenzyl)amino)benzenesulfonamide derivatives as potent and selective inhibitors of 12-lipoxygenase” (Eastern Virginia Medical School, priority 2013, dated 2020).
“Also recorded” adds a separate entry of the source. Marks after values point to notes of the source that are not given here.

Key:
[1] = system: FcγRIIa-stimulated platelets; assay: PKC activation assay; type: cell-based, human
Method: (§1) FcγRIIa-mediated platelet activation: FcγRIIa-mediated platelet activation was initiated by two distinct models; either 1) FcγRIIa antibody cross-linking or 2) CD9 monoclonal antibody stimulation. To cross-link FcγRIIa, washed platelets were incubated with IV.3, an FcγRIIa mouse monoclonal antibody, for one minute followed by the addition of a goat anti-mouse (GAM) IgG antibody to cross-link FcγRIIa. The concentration of FcγRIIa cross-linking antibodies used for each experiment is indicated in the text. Alternatively, washed human platelets were stimulated with an anti-CD9 monoclonal antibody to activate FcγRIIa mediated signaling. Due to inter-individual variability in anti-CD9 response, a range of anti-CD9 concentration (0.25-1 μg/ml) was used to achieve an aggregation of EC80. In studies using the 12-LOX inhibitor (ML355), washed platelets were incubated with either ML355 (20 μM), or DMSO (vehicle control) for 15 minutes prior to FcγRIIa stimulation.
PKC activation assay: Washed platelets were stimulated by FcγRIIa antibody cross-linking under stirring conditions (1100 rpm) in an aggregometer at 37° C. Reactions were stopped by the addition of 5X× Laemmli sample buffer at the indicated times. As a positive control platelets were treated with PMA ([…]), a direct PKC agonist, for one minute. […]

[2] = system: human primary donor islets; assay: Human Islet (12-HETE Inhibition) Assay; type: cell-based; conditions: 10 μM
[3] = system: FcγRIIa-stimulated platelets; assay: FcγRIIa phosphorylation (immunoprecipitation, Western blot); type: cell-based, human; conditions: ML355 (20 μM); IV.3+GAM
Method: FIGS. 15A-15B show the role of 12-LOX in regulating the FcγRIIa signaling complex. Washed human platelets were pre-treated with ML355 (20 μM) or vehicle control prior to IV.3 and GAM stimulation. (FIG. 15A) Immunoprecipitation of FcγRIIa at 15, 30, and 60 seconds post crosslinking and measured for phosphorylation via Western blot. (FIG. 15B) Platelets were lysed following FcγRIIa cross-linking in the presence of ML355 or DMSO were immunoblotted for active (pY323) and total Syk.
To investigate whether 12-LOX directly regulated FcγRIIa phosphorylation, FcγRIIa was immunoprecipitated from IV.3+GAM-stimulated platelets treated with ML355 or DMSO and immunoblotted for phosphorylation of FcγRIIa.
as §1, with “Due to inter-individual variability in anti-CD9 response, a range of anti-CD9 concentration (0.25-1 μg/ml) was used to achieve an aggregation of EC80. In studies using the 12-LOX inhibitor (ML355), washed platelets were incubated with either ML355 (20 μM), or DMSO (vehicle control) for 15 minutes prior to FcγRIIa stimulation.” left out

washed human platelets [4] = assay: PAR4-AP-induced platelet aggregation; type: cell-based
Method: Blood was centrifuged at 200 g for 13 min at room temperature.

[5] = system: FcγRIIa-stimulated platelets; assay: Rap1 activation after FcγRIIa stimulation; type: cell-based, human; conditions: ML355 pre-treatment
Source text: (§2) Preparation of washed human platelets: Prior to blood collection written informed consent was obtained from all volunteers. Washed platelets were isolated from the blood of healthy volunteers as previously described (14). Washed platelets were resuspended in tyrodes buffer at 3.0×10^8 platelets/mL unless otherwise indicated.
as §1, with “FcγRIIa stimulation. […]” for “FcγRIIa stimulation.”

in vivo = conditions: male, CD1, mouse
[6] = Microsomal stability (mouse); type: in vitro ADME
[7] = system: FcγRIIa-stimulated platelets; assay: Calcium mobilization after FcγRIIa cross-linking; type: cell-based, human; conditions: ML355 (20 μM); compared to DMSO treated platelets
Method: as §1
Calcium mobilization: Intracellular calcium release was measured as previously described. […] Platelets were stimulated by FcγRIIa antibody cross-linking and fluorescence intensity was measured in real-time by flow cytometry. Data is reported as the fold change in the fluorescence intensity comparing maximum fluorescence intensity relative to fluorescence intensity prior to platelet stimulation.

[8] = system: FcγRIIa-stimulated platelets; assay: αIIbβ3 activation after FcγRIIa stimulation; type: cell-based, human; conditions: ML355 pre-treatment; IV.3 + GAM
Source text: as §2
as §1, with “Due to inter-individual variability in anti-CD9 response, a range of anti-CD9 concentration (0.25-1 μg/ml) was used to achieve an aggregation of EC80. In studies using the 12-LOX inhibitor (ML355), washed platelets were incubated with either ML355 (20 μM), or DMSO (vehicle control) for 15 minutes prior to FcγRIIa stimulation.” left out
Alpha granule release and αIIbβ3 activation: Prior to stimulation, washed platelets were pre-incubated with a either FITC-conjugated P-selectin antibody or FITC-conjugated PAC-1, an antibody specific for the active conformation of αIIb3. […] Fluorescence intensity was measured by flow cytometry. Results are reported as mean fluorescence intensity.

[9] = system: FcγRIIa-stimulated platelets; assay: PLCγ2 phosphorylation after FcγRIIa cross-linking; type: cell-based, human; conditions: ML355 (20 μM); 15 and 30 seconds
Method: as §1
PLCγ2 phosphorylation: Washed human platelets were adjusted to 5×10^8 platelets/mL and stimulated in an aggregometer by antibody cross-linking of FcγRIIa and lysed at designated times with 5× reducing buffer to stop the reaction. Samples were separated on a 7.5% SDS-PAGE gel. Antibodies to PLCy2 and phospho-Y759 PLCy2, a marker of PLCy2 activation, were used to evaluate the relative levels of total and active PLCy2, respectively.

washed human platelets [10] = assay: FcγRIIa-mediated platelet aggregation; type: cell-based; conditions: ML355 20 μM, 15 minutes; anti-CD9 stimulation or IV.3 + GAM cross-linking
Source text: as §2
as §1, with “In studies using the 12-LOX inhibitor (ML355), washed platelets were incubated with either ML355 (20 μM), or DMSO (vehicle control) for 15 minutes prior to FcγRIIa stimulation.” left out
Platelet aggregation: Platelet aggregation was measured with a lumi-aggregometer (Chronolog Corp, Model 700D) under stirring conditions at 37° C.

[11] = PBS buffer (pH 7.4) solubility; type: physicochemical; conditions: PBS buffer, pH 7.4, aqueous buffer

## COc1cccc(CNc2ccc(S(=O)(=O)Nc3nc4ccccc4s3)cc2)c1O [Compound 35, N-(benzo[d]thiazol-2-yl)-4-((2-hydroxy-3-methoxybenzyl)amino)benzenesulfonamide]
[1]; ML355 (20 μM), 30 and 60 seconds, FcγRIIa cross-linking
  PKC activation: significant decrease in PKC activation
[1]; PMA, a direct PKC activator
  PKC activation by PMA: no difference in its ability to activate PKC
[2]
  AA/IONO-induced 12-HETE production in human islets: significant inhibition of AA/IONO-induced 12-HETE production
[3]
  FcγRIIa phosphorylation: No difference in FcγRIIa phosphorylation
Washed human platelets [4]
  PAR4-AP induced platelet aggregation (in words): significantly reduce PAR4-AP induced platelet aggregation
Washed human platelets [4]; 10 μM, PAR4-AP
  platelet aggregation at 10 μM: did not inhibit platelet aggregation
[5]
  Rap1 activation: failed to activate Rap1
In vivo
  half-life: 174 min
[6]; in the presence of NADPH
  Microsomal stability T1/2 (min): >300^a min
[6]; microsomes, read-out: microsomal stability T1/2
  half-life: > 300 min
[7]
  intracellular Ca2+ release: decrease in intracellular Ca^2+
[8]
  αIIbβ3 activation: significant attenuated along multiple signaling steps
[9]
  PLCγ2 phosphorylation: attenuated PLCy2 phosphorylation at 15 and 30 seconds
Washed human platelets [10]
  FcγRIIa-mediated platelet aggregation: attenuated FcγRIIa-mediated platelet aggregation; also recorded: significantly attenuated aggregation
[11]
  solubility: < 5 µg/mL
